Measurements reported in publication PMC10572602, “Molecular Mechanism of STIL Coiled-Coil Domain Oligomerization” (International Journal of Molecular Sciences, 2023).
Like-named read-outs stand apart in the source and are kept apart here.

Legend:
[1] = assay type: physicochemical; conditions: for Tm: CD 222 nm, Boltzmann fit
Excerpt: (§1) Next, we used circular dichroism (CD) spectroscopy to probe the secondary structures of these WT CCD peptide assemblies. […] The spectra all had minima at 208 and 222 nm indicative of largely α-helical structures. From the high-concentration spectra we estimated ≈47% helix. To compare how the stabilities of these helical assemblies changed with concentration, we followed the changes in MRE222 with temperature over the same concentration range (Figure 2D, Table S1). Sigmoidal curves indicative of cooperative unfolding were apparent at all concentrations, indicating a cooperatively folded, oligomeric species. […] The temperature-dependent CD measurements were performed to determine the oligomerization-dependent thermal stability of the CCD. […] CD spectra of the peptides were recorded using a J-810 spectropolarimeter (Jasco) in a 0.1 cm and 1 cm quartz cuvette for far-UV CD spectroscopy, in a spectral range of 190 nm to 260 nm. The buffer used in the CD measurements was 25 mM sodium phosphate buffer pH = 6.8 with ionic strength of 154 mM (adjected by NaCl). The thermal melting of all STIL CCD peptides were measured as described. The graphs were fitted to Boltzmann equation in order to generate the Tm. Normalization to mean residue ellipticity was performed. The 100% helicity was calculated (with normalization to the length of the peptide and the condition of the measurement) as MRE × 10^−3 of −38 (Deg × cm^2 × dmol^−1 × res^−1).

[2] = ref [14]; cited from earlier work
Excerpt: Presumably, this is due to the disruption of the hydrophobic CC interactions upon mutation from the hydrophobic Leu to the charged Glu. […] Other ...

[3] = molecular target: T1, STIL CCD peptide (Homo sapiens, UniProt Q15468, L736E); assay: Fluorescence-based binding (micro-scale thermophoresis instrument), self-association; conditions: 5 µM labeled + unlabelled same peptide 9 nM–300 µM; 25 mM Na2PO4 pH 6.8, 5% DMSO
T1 construct: STIL CCD718–749 WT; made in house; host or cells: chemical synthesis (Fmoc-SPPS on rink amide, C-terminal amide)
T1 sequence (Q15468 718-749 L736E): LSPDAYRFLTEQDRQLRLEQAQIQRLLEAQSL

[4] = CD spectroscopy, helicity; assay type: physicochemical; conditions: 5 °C
Excerpt: as §1

[5] = tested on: STIL CCD peptide; assay: AUC sedimentation velocity (SV), oligomeric state; assay type: physicochemical; conditions: for sw / mw (solution mass from c(s) fit) / f/f0 / sw(20,w) / oligomeric state (average number of monomers in the oligomer): AUC-SV, 60 krpm; for sw / mw (solution mass from c(s) fit) / oligomeric state (average number of monomers in the oligomer): 20 °C; for sw / mw (solution mass from c(s) fit) / f/f0 / sw(20,w): pH 6.8; for mw (solution mass from c(s) fit) / oligomeric state (average number of monomers in the oligomer): 95% confidence level; for oligomeric state (average number of monomers in the oligomer): continuous c(s), 25 mM sodium phosphate pH 6.8, NaCl
Description: Previously, we and others have shown by size-exclusion chromatography and multi-angle light scattering that the oligomerization of a STIL CCD peptide is concentration dependent. However, these studies were qualitative and the interaction was not quantified. To quantify the oligomerisation of the STIL CCD peptide, analytical ultracentrifugation (AUC) sedimentation velocity (SV) and sedimentation equilibrium (SE) experiments were performed (Figure 2A, Table 1 and Figures S4–S9, S18 and S19). AUC-SV experiments were conducted at several concentrations to explore how the oligomeric state changed with concentration in the low-to-high µM concentration range, and also to estimate the dissociation constants of the oligomerization of the STIL CCD peptide.
Analytical ultracentrifugation (AUC) experiments were carried out using a Beckman Optima XL-A or XL-I analytical ultracentrifuge. Measurements were performed at 20 °C unless otherwise stated, using an An-50 or An-60 rotor, in Sodium Phosphate Buffer pH 6.8 (25 mM Na2PO4 with addition of 137 mM NaCl, pH measured using Jenway (TM) 3510 benchtop and adjusted using 1M HCl and 1M NaOH solutions). The partial specific volume ( υ¯ ) for each peptide were calculated in Sedfit using values from Cohn and Edsall. The buffer densities and viscosities were calculated using UltraScan III [54].
Sedimentation velocity (SV) experiments were performed in EPON 2-channel centerpieces with quartz windows or aluminium centrepieces with sapphire windows. The samples were centrifuged at 50 or 60 krpm where stated, with absorbance measurements taken from a radial range of 5.7–7.3 cm. 120 scans were taken at 5 min intervals, the data were fit in Sedfit to a continuous c(s) distribution model at a 95% confidence level. The frictional ration and baseline were floated, and Time-invariant and Radial-invariant noise were fit. Initially data were fit between a range of Svedberg ratio of 0–15, but this was reduced to 0–3 for all data as there were no larger species. The residuals for each individual fit are shown in Figures S14–S17 as a bitmap in which the color indicates the difference between the model fit and the raw data over the radial range to which the data were fitted. The scans are in vertical chronological order.

## L SPDAYRF LTEQDRQ LRLEQAQ IQRLLEA QSL-NH2 [STIL CCD718–749 L736E, STIL CCD peptide with destabilising L736E mutation; PDB 8oyk]
[1]; 5 µM, sodium phosphate pH 6.8
  Tm: 18±1 °C
[1]; 25 µM, sodium phosphate pH 6.8
  Tm: 17±2 °C
[1]; 50 µM, 25 mM sodium phosphate pH 6.8, 154 mM NaCl
  Tm: 10 ± 2 °C
[1]; 100 µM, sodium phosphate pH 6.8
  Tm: 12±1 °C
[1]; pH 6.8
  concentration dependence of Tm / thermal stability (in words): No detectable change in the Tm at different L736E concentrations
[2]
  thermal stability of mutant peptide (in words): leads to a decrease in its thermal stability
[3]
  binding or oligomerization (in words): no binding or oligomerization
[4]; different peptide concentrations (WT 5–100 µM), pH 6.8
  concentration dependence of CD spectrum / helical folding (in words): no concentration dependence
[4]; CD at 50 µM, 25 mM sodium phosphate pH 6.8, 154 mM NaCl
  MRE222 nm: −23.3 kdeg cm^2 dmol^−1 res^−1
[4]; from MRE222 (100% = −38), CD at 50 µM, 25 mM sodium phosphate pH 6.8, 154 mM NaCl
  % Helicity: 62%
[5]; 10 µM
  Oligomeric State (at 10 µM): Monomer
  sw: 0.590 S
  mw (solution mass from c(s) fit): 3849 Da
  f/f0: 1.460
  sw(20,w): 0.608 S
[5]; 10 µM, absorbance
  oligomeric state (average number of monomers in the oligomer): 1.00 × monomer mass
[5]; 10 µM, absorbance, listed as CCD718–749-L736E
  oligomeric state (average number of monomers in the oligomer): 1 × monomer mass
[5]; 10 µM, absorbance, listed as STIL-L736E
  oligomeric state (average number of monomers in the oligomer): 1.0 × monomer mass
[5]; 500 µM
  sw: 0.721 S
  mw (solution mass from c(s) fit): 3871 Da
  f/f0: 1.201
  sw(20,w): 0.742 S
  oligomeric state (average number of monomers in the oligomer): 1 × monomer mass
[5]; 500 µM, listed as STIL-L736E
  oligomeric state (average number of monomers in the oligomer): 1.0 × monomer mass
